Measured values taken from ChEMBL document CHEMBL1201862, “PubChem BioAssay data set” (2004).
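Compound exposure: 48 hours, 5 concentrations, 96-well plates. GI50 is the concentration that inhibits growth by half.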 Activity calls are given as the source filed them. Cut-off read from the data, not from the text of the source: active = GI50 up to about 1.1 µM and inactive = higher.

Legend:
Experiment in all cases: inhibition of tumour cell growth, NCI panel, 48 h
[1] = system: IGROV-1
[2] = system: DMS-114
[3] = system: UACC-62
[4] = system: HCC 2998
[5] = system: DLD-1
[6] = system: NCI-H460
[7] = system: HOP-62
[8] = system: SK-MEL-28
[9] = system: LXFL 529
[10] = system: CCRF-CEM
[11] = system: HT-29
[12] = system: SNB-19
[13] = system: KM-20L2
[14] = system: OVCAR-8
[15] = system: SF-268
[16] = system: 786-0
[17] = system: SK-OV-3
[18] = system: SW-620
[19] = system: OVCAR-5
[20] = system: UO-31
[21] = system: M19-MEL
[22] = system: OVCAR-4
[23] = system: SF-539
[24] = system: CAKI-1
[25] = system: A549
[26] = system: HOP-18
[27] = system: HCT-15
[28] = system: SNB-78
[29] = system: EKVX
[30] = system: SK-MEL-2
[31] = system: SK-MEL-5
[32] = system: KM12
[33] = system: NCI-H522
[34] = system: TK-10
[35] = system: MOLT-4
[36] = system: SF-295
[37] = system: ACHN
[38] = system: COLO 205
[39] = system: K562
[40] = system: NCI-H23
[41] = system: SN12C
[42] = system: HCT-116
[43] = system: Malme-3M
[44] = system: A498
[45] = system: XF498
[46] = system: U-251
[47] = system: UACC-257
[48] = system: SNB-75
[49] = system: OVCAR-3
[50] = system: M14
[51] = system: RPMI-8226
[52] = system: HOP-92
[53] = system: RXF 393
[54] = system: LOX IMVI
[55] = system: SR
[56] = system: NCI-H226
[57] = system: HL-60
[58] = system: DMS-273

Cc1ccc(C)c2c1CCc1cc3ccccc3nc1-2
GI50 [1]: > 100 µM (inactive) | GI50 [2]: > 100 µM (inactive) | GI50 [3]: > 100 µM (inactive) | GI50 [4]: > 100 µM (inactive) | GI50 [5]: > 100 µM (inactive) | GI50 [6]: > 100 µM (inactive) | GI50 [7]: > 100 µM (inactive) | GI50 [8]: > 100 µM (inactive) | GI50 [9]: > 100 µM (inactive) | GI50 [10]: > 100 µM (inactive) | GI50 [11]: > 100 µM (inactive) | GI50 [12]: > 100 µM (inactive) | GI50 [13]: > 100 µM (inactive) | GI50 [14]: > 100 µM (inactive) | GI50 [15]: > 100 µM (inactive) | GI50 [16]: > 100 µM (inactive) | GI50 [17]: > 100 µM (inactive) | GI50 [18]: > 100 µM (inactive) | GI50 [19]: > 100 µM (inactive) | GI50 [20]: > 100 µM (inactive) | GI50 [21]: > 100 µM (inactive) | GI50 [22]: > 100 µM (inactive) | GI50 [23]: > 100 µM (inactive) | GI50 [24]: > 100 µM (inactive) | GI50 [25]: > 100 µM (inactive) | GI50 [26]: 2.65 µM (inactive) | GI50 [27]: > 100 µM | GI50 [28]: > 100 µM (inactive) | GI50 [29]: > 100 µM (inactive) | GI50 [30]: > 100 µM (inactive) | GI50 [31]: > 100 µM (inactive) | GI50 [32]: > 100 µM (inactive) | GI50 [33]: > 100 µM (inactive) | GI50 [34]: > 100 µM (inactive) | GI50 [35]: > 100 µM (inactive) | GI50 [36]: > 100 µM (inactive) | GI50 [37]: > 100 µM (inactive) | GI50 [38]: > 100 µM (inactive) | GI50 [39]: > 100 µM (inactive) | GI50 [40]: > 100 µM (inactive) | GI50 [41]: > 100 µM (inactive) | GI50 [42]: > 100 µM (inactive) | GI50 [43]: > 100 µM (inactive) | GI50 [44]: > 100 µM (inactive) | GI50 [45]: > 100 µM (inactive) | GI50 [46]: > 100 µM (inactive) | GI50 [47]: > 100 µM (inactive) | GI50 [48]: 98.6 µM (inactive) | GI50 [49]: > 100 µM (inactive) | GI50 [50]: > 100 µM (inactive) | GI50 [51]: > 100 µM (inactive)

N=C(N)N/N=C/c1oc(-c2ccc(S(=O)(=O)O)o2)c(-c2ccc(S(=O)(=O)O)o2)c1[N+](=O)[O-]
GI50 [1]: > 100 µM (inactive) | GI50 [2]: > 100 µM (inactive) | GI50 [3]: > 100 µM (inactive) | GI50 [52]: > 100 µM (inactive) | GI50 [4]: > 100 µM (inactive) | GI50 [53]: > 100 µM (inactive) | GI50 [5]: > 100 µM (inactive) | GI50 [6]: > 100 µM (inactive) | GI50 [7]: > 100 µM (inactive) | GI50 [8]: > 100 µM (inactive) | GI50 [54]: > 100 µM (inactive) | GI50 [9]: > 100 µM (inactive) | GI50 [10]: > 100 µM (inactive) | GI50 [11]: > 100 µM (inactive) | GI50 [12]: > 100 µM (inactive) | GI50 [13]: > 100 µM (inactive) | GI50 [14]: > 100 µM (inactive) | GI50 [15]: > 100 µM (inactive) | GI50 [16]: > 100 µM (inactive) | GI50 [17]: > 100 µM (inactive) | GI50 [18]: > 100 µM (inactive) | GI50 [19]: > 100 µM (inactive) | GI50 [20]: > 100 µM (inactive) | GI50 [21]: > 100 µM (inactive) | GI50 [22]: > 100 µM (inactive) | GI50 [23]: > 100 µM (inactive) | GI50 [24]: > 100 µM (inactive) | GI50 [55]: > 100 µM (inactive) | GI50 [25]: > 100 µM (inactive) | GI50 [26]: > 100 µM (inactive) | GI50 [27]: > 100 µM | GI50 [29]: > 100 µM (inactive) | GI50 [30]: > 100 µM (inactive) | GI50 [31]: > 100 µM (inactive) | GI50 [32]: > 100 µM (inactive) | GI50 [56]: > 100 µM (inactive) | GI50 [33]: > 100 µM (inactive) | GI50 [34]: > 100 µM (inactive) | GI50 [35]: > 100 µM (inactive) | GI50 [36]: > 100 µM (inactive) | GI50 [37]: > 100 µM (inactive) | GI50 [38]: > 100 µM (inactive) | GI50 [39]: > 100 µM (inactive) | GI50 [40]: > 100 µM (inactive) | GI50 [41]: > 100 µM (inactive) | GI50 [42]: > 100 µM (inactive) | GI50 [43]: > 100 µM (inactive) | GI50 [44]: > 100 µM (inactive) | GI50 [57]: > 100 µM (inactive) | GI50 [46]: > 100 µM (inactive) | GI50 [47]: > 100 µM (inactive) | GI50 [48]: > 100 µM (inactive) | GI50 [49]: > 100 µM (inactive) | GI50 [50]: > 100 µM (inactive) | GI50 [58]: > 100 µM (inactive)

CC(=O)Oc1cc(OC(C)=O)c2c(c1)OC(c1ccc(OC(C)=O)c(OC(C)=O)c1)CC2=O (stereo not drawn)
GI50 [52]: 29.8 µM (inactive) | GI50 [4]: > 100 µM (inactive) | GI50 [10]: 20.4 µM (inactive) | GI50 [17]: 71.9 µM (inactive) | GI50 [18]: 47.5 µM (inactive) | GI50 [20]: 38.9 µM (inactive) | GI50 [55]: 14.7 µM (inactive) | GI50 [25]: 43.9 µM (inactive) | GI50 [26]: 30.1 µM (inactive) | GI50 [31]: 55.3 µM (inactive) | GI50 [34]: 49.9 µM (inactive) | GI50 [36]: 41.6 µM (inactive) | GI50 [38]: 63.1 µM (inactive) | GI50 [41]: 0.0446 µM (active) | GI50 [42]: 63.7 µM (inactive) | GI50 [57]: 0.458 µM (active) | GI50 [58]: 50.6 µM (inactive)
